Data taken from patent US12186283B2, “Bismuth-thiol compositions and methods of use” (Microbion Corporation, priority 2018, dated 2025).
Like-named read-outs stand apart in the source and are kept apart here.

Legend:
Assay type in all cases: cell-based
Candida albicans = test: Broth microdilution MIC, yeast (Example 13); conditions: 24 hr
Candida glabrata = test: Broth microdilution MIC, yeast (Example 13)
Candida krusei = test: Broth microdilution MIC, yeast (Example 13)
Candida auris = test: Broth microdilution MIC, yeast (Example 13)
Aspergillus spp. = test: Broth microdilution MIC/MEC, mold (Example 13); conditions: for MIC0 (complete inhibition): comparators, read time not given
[1] = Candida albicans ATCC 90028, Susceptible
[2] = Candida albicans MMX 7053, Susceptible
[3] = Candida albicans MMX 7403, Susceptible
[4] = Candida albicans MMX 7430, Susceptible
[5] = Candida albicans MMX 7437, FLU-I
[6] = Candida glabrata ATCC 90030, Susceptible
[7] = Candida glabrata ATCC MYA-2950, Susceptible
[8] = Candida glabrata MMX 7087, Susceptible
[9] = Candida glabrata MMX 7111, Susceptible
[10] = Candida glabrata MMX 7549, Susceptible
[11] = C. krusei ATCC 14243, Susceptible
[12] = C. krusei ATCC 96685, Susceptible
[13] = C. krusei MMX 7125, Susceptible
[14] = C. krusei MMX 7128, Susceptible
[15] = C. krusei MMX 7141, Susceptible
[16] = C. krusei MMX 7155, Susceptible
[17] = C. krusei MMX 7563, Susceptible
[18] = C. krusei MMX 9878, MICA-I, VORI-I

**Q.** What does the source list for `C[C@@H](c1ncncc1F)[C@](O)(Cn1cncn1)c1ccc(F)cc1F` [VORI]?
**A.** MIC2 (50% inhibition) (Candida albicans; [1]): ≤0.008 µg/mL; MIC2 (50% inhibition) (Candida albicans; Candida albicans ATCC 204276, MICA-R): ≤0.008 µg/mL; MIC2 (50% inhibition) (Candida albicans; Candida albicans ATCC MYA-2732, FLU-R, VORI-I): 0.5 µg/mL; MIC2 (50% inhibition) (Candida albicans; [2]): ≤0.008 µg/mL; MIC2 (50% inhibition) (Candida albicans; Candida albicans MMX 7067, FLU-R, VORI-R): >8 µg/mL; MIC2 (50% inhibition) (Candida albicans; [3]): ≤0.008 µg/mL; MIC2 (50% inhibition) (Candida albicans; Candida albicans MMX 7424, CASP-R, MICA-R): ≤0.008 µg/mL; MIC2 (50% inhibition) (Candida albicans; [4]): ≤0.008 µg/mL; MIC2 (50% inhibition) (Candida albicans; [5]): 0.12 µg/mL; MIC2 (50% inhibition) (Candida albicans; Candida albicans MMX 7445, FLU-R, VORI-R): >8 µg/mL; MIC2 (50% inhibition) (Candida glabrata; [6]): 0.12 µg/mL; MIC2 (50% inhibition) (Candida glabrata; [7]): 0.12 µg/mL; MIC2 (50% inhibition) (Candida glabrata; [8]): 0.03 µg/mL; MIC2 (50% inhibition) (Candida glabrata; Candida glabrata MMX 7093, FLU-R): 2 µg/mL; MIC2 (50% inhibition) (Candida glabrata; Candida glabrata MMX 7101, FLU-R): 2 µg/mL; MIC2 (50% inhibition) (Candida glabrata; Candida glabrata MMX 7103, CASP-R, MICA-R): 0.12 µg/mL; MIC2 (50% inhibition) (Candida glabrata; [9]): 0.06 µg/mL; MIC2 (50% inhibition) (Candida glabrata; Candida glabrata MMX 7285, CASP-R, MICA-R): 1 µg/mL; MIC2 (50% inhibition) (Candida glabrata; Candida glabrata MMX 7307, CASP-R, MICA-R, FLU-R): 4 µg/mL; MIC2 (50% inhibition) (Candida glabrata; [10]): 0.06 µg/mL; MIC2 (50% inhibition) (Candida krusei; C. krusei ATCC 6258, MICA-I): 0.12 µg/mL; MIC2 (50% inhibition) (Candida krusei; [11]): 0.06 µg/mL; MIC2 (50% inhibition) (Candida krusei; [12]): 0.5 µg/mL; MIC2 (50% inhibition) (Candida krusei; [13]): 0.25 µg/mL; MIC2 (50% inhibition) (Candida krusei; [14]): 0.12 µg/mL; MIC2 (50% inhibition) (Candida krusei; [15]): 0.12 µg/mL; MIC2 (50% inhibition) (Candida krusei; C. krusei MMX 7153, MICA-R): 0.25 µg/mL; MIC2 (50% inhibition) (Candida krusei; [16]): 0.25 µg/mL; MIC2 (50% inhibition) (Candida krusei; [17]): 0.25 µg/mL; MIC2 (50% inhibition) (Candida krusei; [18]): 1 µg/mL; MIC2 (50% inhibition) (Candida auris; C. auris MMX 9862, Susceptible): 0.03 µg/mL; MIC2 (50% inhibition) (Candida auris; C. auris MMX 9863, FLU-R, VORI-R): >8 µg/mL; MIC2 (50% inhibition) (Candida auris; C. auris MMX 9864, FLU-R, VORI-R): 2 µg/mL; MIC2 (50% inhibition) (Candida auris; C. auris MMX 9865, FLU-R, VORI-R): 8 µg/mL; MIC2 (50% inhibition) (Candida auris; C. auris MMX 9866, FLU-R, VORI-R): 8 µg/mL; MIC2 (50% inhibition) (Candida auris; C. auris MMX 9867, FLU-R, VORI-R): 8 µg/mL; MIC2 (50% inhibition) (Candida auris; C. auris MMX 9868, FLU-R, VORI-R): >8 µg/mL; MIC2 (50% inhibition) (Candida auris; C. auris MMX 9869, FLU-R, VORI-R): 2 µg/mL; MIC2 (50% inhibition) (Candida auris; C. auris MMX 9870, FLU-R, VORI-R): 4 µg/mL; MIC2 (50% inhibition) (Candida auris; C. auris MMX 9871, Susceptible): 1 µg/mL; MIC0 (complete inhibition) (Aspergillus spp.; A. flavus ATCC 22546): 1 µg/mL; MIC0 (complete inhibition) (Aspergillus spp.; A. flavus ATCC 204304): 2 µg/mL; MIC0 (complete inhibition) (Aspergillus spp.; A. flavus MMX 7935): 0.5 µg/mL; MIC0 (complete inhibition) (Aspergillus spp.; A. fumigatus ATCC 204305): 0.5 µg/mL; MIC0 (complete inhibition) (Aspergillus spp.; A. fumigatus ATCC MYA-3626): 0.5 µg/mL; MIC0 (complete inhibition) (Aspergillus spp.; A. fumigatus MMX 5934): 0.25 µg/mL; MIC0 (complete inhibition) (Aspergillus spp.; A. fumigatus MMX 5938): 0.25 µg/mL; MIC0 (complete inhibition) (Aspergillus spp.; A. fumigatus MMX 5939): 2 µg/mL; MIC0 (complete inhibition) (Aspergillus spp.; A. niger ATCC 29508): 0.5 µg/mL; MIC0 (complete inhibition) (Aspergillus spp.; A. terreus MMX 8229): 0.25 µg/mL

**Q.** How did the “MIC2 (50% inhibition)” value (Candida albicans; [1]) turn out when `OC(Cn1cncn1)(Cn1cncn1)c1ccc(F)cc1F` [FLU] was run?
**A.** 0.25 µg/mL

**Q.** What about the “MIC2 (50% inhibition)” value (Candida albicans; [2]) of the same molecule?
**A.** 0.12 µg/mL

**Q.** And the “MIC2 (50% inhibition)” value (Candida albicans; [3])?
**A.** 1 µg/mL

**Q.** What about the “MIC2 (50% inhibition)” value (Candida albicans; [4]) of the same molecule?
**A.** 0.5 µg/mL

**Q.** What about the “MIC2 (50% inhibition)” value (Candida albicans; [5]) of the same molecule?
**A.** 4 µg/mL

**Q.** And the “MIC2 (50% inhibition)” value (Candida glabrata; [6])?
**A.** 8 µg/mL

**Q.** What about the “MIC2 (50% inhibition)” value (Candida glabrata; [7]) of the same molecule?
**A.** 8 µg/mL

**Q.** What about the “MIC2 (50% inhibition)” value (Candida glabrata; [8]) of the same molecule?
**A.** 1 µg/mL

**Q.** And the “MIC2 (50% inhibition)” value (Candida glabrata; [9])?
**A.** 2 µg/mL

**Q.** And the “MIC2 (50% inhibition)” value (Candida glabrata; [10])?
**A.** 4 µg/mL

**Q.** What about the “MIC2 (50% inhibition)” value (Candida krusei) of the same molecule?
**A.** 32 µg/mL

**Q.** What about the “MIC2 (50% inhibition)” value (Candida krusei; C. krusei ATCC 6258, MICA-I) of the same molecule?
**A.** 16 µg/mL

**Q.** What about the “MIC2 (50% inhibition)” value (Candida krusei; [11]) of the same molecule?
**A.** 16 µg/mL

**Q.** What about the “MIC2 (50% inhibition)” value (Candida krusei; [12]) of the same molecule?
**A.** 32 µg/mL

**Q.** What about the “MIC2 (50% inhibition)” value (Candida krusei; [13]) of the same molecule?
**A.** 32 µg/mL

**Q.** And the “MIC2 (50% inhibition)” value (Candida krusei; [14])?
**A.** 16 µg/mL

**Q.** And the “MIC2 (50% inhibition)” value (Candida krusei; [15])?
**A.** 16 µg/mL

**Q.** What about the “MIC2 (50% inhibition)” value (Candida krusei; [16]) of the same molecule?
**A.** 32 µg/mL

**Q.** And the “MIC2 (50% inhibition)” value (Candida krusei; [17])?
**A.** 32 µg/mL

**Q.** What about the “MIC2 (50% inhibition)” value (Candida krusei; [18]) of the same molecule?
**A.** 64 µg/mL

**Q.** What about the “MIC2 (50% inhibition)” value (Candida auris) of the same molecule?
**A.** >64 µg/mL

**Q.** What about the “MIC2 (50% inhibition)” value (Candida auris; C. auris MMX 9862, Susceptible) of the same molecule?
**A.** 2 µg/mL

**Q.** What about the “MIC2 (50% inhibition)” value (Candida auris; C. auris MMX 9871, Susceptible) of the same molecule?
**A.** >64 µg/mL

**Q.** What about the MIC2 (Aspergillus spp.; A. flavus ATCC 22546) of the same molecule?
**A.** >64 µg/mL

**Q.** What about the MIC2 (Aspergillus spp.; A. flavus ATCC 204304) of the same molecule?
**A.** >64 µg/mL

**Q.** And the MIC2 (Aspergillus spp.; A. flavus MMX 7935)?
**A.** >64 µg/mL

**Q.** And the MIC2 (Aspergillus spp.; A. fumigatus ATCC 204305)?
**A.** >64 µg/mL

**Q.** And the MIC2 (Aspergillus spp.; A. fumigatus ATCC MYA-3626)?
**A.** >64 µg/mL

**Q.** What about the MIC2 (Aspergillus spp.; A. fumigatus MMX 5934) of the same molecule?
**A.** >64 µg/mL

**Q.** And the MIC2 (Aspergillus spp.; A. fumigatus MMX 5938)?
**A.** >64 µg/mL

**Q.** What about the MIC2 (Aspergillus spp.; A. fumigatus MMX 5939) of the same molecule?
**A.** >64 µg/mL

**Q.** And the MIC2 (Aspergillus spp.; A. niger ATCC 29508)?
**A.** >64 µg/mL

**Q.** What about the MIC2 (Aspergillus spp.; A. terreus MMX 8229) of the same molecule?
**A.** >64 µg/mL
